The results in this text go back to patent US20260232812A1, “BIFUNCTIONAL MOLECULES FOR TARGETED PROTEIN DEGRADATION” (Amphista Therapeutics Limited, priority 2022, published 2026).

What is called DC50 is the concentration at which degradation of the target reaches its halfway point. Higher therefore signals degradation only at high concentration. As usually defined, the Dmax is the largest share of the target that was removed.

This assay deals with T1, BRD4 (Homo sapiens, UniProt O60885).
T1 construct: HEK293 containing a HiBit insertion for BRD4; endogenous in cells; host or cells: HEK293 with a HiBiT insertion for BRD4
The experiment in a line: Assay 1 - Degradation of HiBit-BRD4 in HEK293. Format: cell-based. The conditions noted are these: HiBit-BRD4 in HEK293, 6 h treatment. On the procedure: 1.1 Assay 1-Degradation of HiBit-BRD4 in HEK293
HEK293 containing a HiBit insertion for BRD4 were plated in 384-well tissue culture plates at a density of 8×10^4 per well in a volume of 36 μL and incubated overnight at 37° C. and 5% CO2. Wells were treated with test compounds for 6 h prior to addition of the NanoLuc substrate and reading on a […]. Degradation data was plotted and analysed using […] (Graphpad).
A general note: With HiBiT, luminescence reflects the tagged protein that the partner subunit can reach.

The structures appear in SMILES notation.

Compound `CC(=O)N1c2ccc(-c3ccc(C(=O)NCCOCCOCCOCCOCCOCCNC(=O)C4CC(c5ccccc5)CN(C(=O)/C(C#N)=C/c5nccs5)C4)cc3)cc2[C@H](Nc2ccc(Cl)cc2)C[C@@H]1C` (some centres unmarked) [Example 13z] came in with a DC50 below 25 nM and a maximal degradation (Dmax) of at least 70%.

Compound `CC(=O)N1c2ccc(-c3ccc(C(=O)NCCOCCOCCOCCOCCOCCNC(=O)CN4CCC(C5CCCN5C(=O)/C(C#N)=C/c5cscn5)CC4)cc3)cc2[C@H](Nc2ccc(Cl)cc2)C[C@@H]1C` (some centres unmarked) [Example 14a] showed a half-maximal degradation concentration (DC50) of 25 to 200 nM and a Dmax of at least 70%.

For the compound `COc1ccc([C@@H]2CN(C(=O)/C(C#N)=C/C(C)(C)C)C[C@H]2C(=O)NCCOCCOCCOCCOCCOCCNC(=O)c2ccc(-c3ccc4c(c3)[C@H](Nc3ccc(Cl)cc3)C[C@H](C)N4C(C)=O)cc2)cc1` [Example 15aa], the DC50 lay in the range of 25 to 200 nM and the greatest degradation seen (Dmax) was at least 70%.

The compound `COc1ccc([C@@H]2CN(C(=O)/C(C#N)=C/c3ccn(C)n3)C[C@H]2C(=O)NCCOCCOCCOCCOCCOCCNC(=O)c2ccc(-c3ccc4c(c3)[C@H](Nc3ccc(Cl)cc3)C[C@H](C)N4C(C)=O)cc2)cc1` [Example 15ab] returned a DC50 of 25 to 200 nM and a Dmax of 50 to 70%.

Take `COc1ccc([C@@H]2CN(C(=O)/C(C#N)=C/c3ccc(F)cc3)C[C@H]2C(=O)NCCOCCOCCOCCOCCOCCNC(=O)c2ccc(-c3ccc4c(c3)[C@H](Nc3ccc(Cl)cc3)C[C@H](C)N4C(C)=O)cc2)cc1` [Example 15ac]: the 50% degradation concentration (DC50) is above 200 nM and the Dmax was below 50%.

As for `CC(=O)N1c2ccc(-c3ccc(C(=O)NCCOCCOCCOCCOCCOCCNC(=O)[C@@H]4CN(C(=O)/C(C#N)=C/c5nccs5)C[C@H]4c4ccc(F)cc4)cc3)cc2[C@H](Nc2ccc(Cl)cc2)C[C@@H]1C` [Example 15ae], the DC50 lay in the range of 25 to 200 nM and the Dmax was at least 70%.

`CC(=O)N1c2ccc(-c3ccc(C(=O)NCCOCCOCCOCCOCCOCCNC(=O)[C@@H]4CN(C(=O)/C(C#N)=C/C(C)(C)C)C[C@H]4c4ccc(F)cc4)cc3)cc2[C@H](Nc2ccc(Cl)cc2)C[C@@H]1C` [Example 15af] came in with a DC50 of 25 to 200 nM and a Dmax of at least 70%.

On to `CC(=O)N1c2ccc(-c3ccc(C(=O)NCCOCCOCCOCCOCCOCCNC(=O)[C@@H]4CN(C(=O)/C(C#N)=C/c5ccn(C)n5)C[C@H]4c4ccc(F)cc4)cc3)cc2[C@H](Nc2ccc(Cl)cc2)C[C@@H]1C` [Example 15ag], for which the DC50 is 25 to 200 nM and the maximal degradation (Dmax) was in the range of 30 to 50%.

`CC(=O)N1c2ccc(-c3ccc(C(=O)NCCOCCOCCOCCOCCOCCNC(=O)[C@@H]4CN(C(=O)/C(C#N)=C/c5ccc(F)cc5)C[C@H]4c4ccc(F)cc4)cc3)cc2[C@H](Nc2ccc(Cl)cc2)C[C@@H]1C` [Example 15ah] showed a DC50 above 200 nM and a Dmax of 30 to 50%.

For the compound `CC(=O)N1c2ccc(-c3ccc(C(=O)NCCOCCOCCOCCOCCOCCNC(=O)[C@@H]4CN(C(=O)/C(C#N)=C/C(C)(C)CN5CCOCC5)C[C@H]4c4ccc(F)cc4)cc3)cc2[C@H](Nc2ccc(Cl)cc2)C[C@@H]1C` [Example 15ai], the DC50 lay in the range of 25 to 200 nM and the Dmax fell in the range of 30 to 50%.

`CC(=O)N1c2ccc(-c3ccc(C(=O)NCCOCCOCCOCCOCCOCCNC(=O)[C@@H]4CN(C(=O)/C(C#N)=C/c5nccs5)C[C@H]4c4cccc(C)c4)cc3)cc2[C@H](Nc2ccc(Cl)cc2)C[C@@H]1C` [Example 15aj] showed a DC50 of 25 to 200 nM and a Dmax of 50 to 70%.

On to `CC(=O)N1c2ccc(-c3ccc(C(=O)NCCOCCOCCOCCOCCOCCNC(=O)[C@@H]4CN(C(=O)/C(C#N)=C/C(C)(C)C)C[C@H]4c4cccc(C)c4)cc3)cc2[C@H](Nc2ccc(Cl)cc2)C[C@@H]1C` [Example 15ak, N-(1-(4-((2S,4R)-1-acetyl-4-((4-chlorophenyl)amino)-2-methyl-1,2,3,4-tetrahydroquinolin-6-yl)phenyl)-1-oxo-5,8,11,14,17-pentaoxa-2-azanonadecan-19-yl)-1-((E)-2-cyano-4,4-dimethylpent-2-enoyl)-4-(m-tolyl)pyrrolidine-3-carboxamide], for which the DC50 is 25 to 200 nM and the Dmax was at least 70%.

Consider `CC(=O)N1c2ccc(-c3ccc(C(=O)NCCOCCOCCOCCOCCOCCNC(=O)[C@@H]4CN(C(=O)/C(C#N)=C/c5ccn(C)n5)C[C@H]4c4cccc(C)c4)cc3)cc2[C@H](Nc2ccc(Cl)cc2)C[C@@H]1C` [Example 15al], for which the DC50 is above 200 nM and the Dmax is at least 70%.

In turn, `CC(=O)N1c2ccc(-c3ccc(C(=O)NCCOCCOCCOCCOCCOCCNC(=O)[C@@H]4CN(C(=O)/C(C#N)=C/C(C)(C)CN5CCOCC5)C[C@H]4c4cccc(C)c4)cc3)cc2[C@H](Nc2ccc(Cl)cc2)C[C@@H]1C` [Example 15an] registered a DC50 of 25 to 200 nM and a Dmax of 30 to 50%.

Regarding `CC(=O)N1c2ccc(-c3ccc(C(=O)NCCOCCOCCOCCOCCOCCNC(=O)[C@@H]4CN(C(=O)/C(C#N)=C/C(C)(C)C)C[C@H]4C)cc3)cc2[C@H](Nc2ccc(Cl)cc2)C[C@@H]1C` [Example 15b], the DC50 lay in the range of 25 to 200 nM and the Dmax is at least 70%.

With `CC(=O)N1c2ccc(-c3ccc(C(=O)NCCOCCOCCOCCOCCOCCNC(=O)[C@@H]4CN(C(=O)/C(C#N)=C/c5nccs5)C[C@H]4C(C)C)cc3)cc2[C@H](Nc2ccc(Cl)cc2)C[C@@H]1C` [Example 15f], the half-maximal degradation concentration (DC50) is above 200 nM and the Dmax lay within 30 to 50%.

In the case of `CC(=O)N1c2ccc(-c3ccc(C(=O)NCCOCCOCCOCCOCCOCCNC(=O)[C@@H]4CN(C(=O)/C(C#N)=C/C(C)(C)C)C[C@H]4C(C)C)cc3)cc2[C@H](Nc2ccc(Cl)cc2)C[C@@H]1C` [Example 15g], the DC50 was 25 to 200 nM and the Dmax was at least 70%.

In the case of `CC(=O)N1c2ccc(-c3ccc(C(=O)NCCOCCOCCOCCOCCOCCNC(=O)[C@@H]4CN(C(=O)/C(C#N)=C/c5ccn(C)n5)C[C@H]4C(C)C)cc3)cc2[C@H](Nc2ccc(Cl)cc2)C[C@@H]1C` [Example 15h], the DC50 was in the range of 25 to 200 nM and the Dmax lay in the range of 50 to 70%.

`CC(=O)N1c2ccc(-c3ccc(C(=O)NCCOCCOCCOCCOCCOCCNC(=O)[C@@H]4CN(C(=O)/C(C#N)=C/c5ccc(F)cc5)C[C@H]4C(C)C)cc3)cc2[C@H](Nc2ccc(Cl)cc2)C[C@@H]1C` [Example 15i] displayed a DC50 above 200 nM and a Dmax of 50 to 70%.

Take `CC(=O)N1c2ccc(-c3ccc(C(=O)NCCOCCOCCOCCOCCOCCNC(=O)[C@@H]4CN(C(=O)/C(C#N)=C/c5nccs5)C[C@H]4CC(C)C)cc3)cc2[C@H](Nc2ccc(Cl)cc2)C[C@@H]1C` [Example 15k]: the DC50 was 25 to 200 nM and the Dmax was at least 70%.

`CC(=O)N1c2ccc(-c3ccc(C(=O)NCCOCCOCCOCCOCCOCCNC(=O)[C@@H]4CN(C(=O)/C(C#N)=C/C(C)(C)C)C[C@H]4CC(C)C)cc3)cc2[C@H](Nc2ccc(Cl)cc2)C[C@@H]1C` [Example 15l] had a DC50 of 25 to 200 nM and a Dmax of at least 70%.

Compound `CC(=O)N1c2ccc(-c3ccc(C(=O)NCCOCCOCCOCCOCCOCCNC(=O)[C@@H]4CN(C(=O)/C(C#N)=C/c5ccn(C)n5)C[C@H]4CC(C)C)cc3)cc2[C@H](Nc2ccc(Cl)cc2)C[C@@H]1C` [Example 15m] returned a DC50 of 25 to 200 nM and a Dmax of 50 to 70%.

Take `CC(=O)N1c2ccc(-c3ccc(C(=O)NCCOCCOCCOCCOCCOCCNC(=O)[C@@H]4CN(C(=O)/C(C#N)=C/C(C)(C)CN5CCOCC5)C[C@H]4CC(C)C)cc3)cc2[C@H](Nc2ccc(Cl)cc2)C[C@@H]1C` [Example 15o]: the DC50 lay within 25 to 200 nM and the Dmax fell in the range of 50 to 70%.

Compound `CC(=O)N1c2ccc(-c3ccc(C(=O)NCCOCCOCCOCCOCCOCCNC(=O)[C@@H]4CN(C(=O)/C(C#N)=C/c5nccs5)C[C@H]4C4CCCCC4)cc3)cc2[C@H](Nc2ccc(Cl)cc2)C[C@@H]1C` [Example 15p] gave a DC50 of 25 to 200 nM and a Dmax of at least 70%.

Compound `CC(=O)N1c2ccc(-c3ccc(C(=O)NCCOCCOCCOCCOCCOCCNC(=O)[C@@H]4CN(C(=O)/C(C#N)=C/C(C)(C)C)C[C@H]4C4CCCCC4)cc3)cc2[C@H](Nc2ccc(Cl)cc2)C[C@@H]1C` [Example 15q] had a DC50 of 25 to 200 nM and a Dmax of at least 70%.

`CC(=O)N1c2ccc(-c3ccc(C(=O)NCCOCCOCCOCCOCCOCCNC(=O)[C@@H]4CN(C(=O)/C(C#N)=C/c5ccn(C)n5)C[C@H]4C4CCCCC4)cc3)cc2[C@H](Nc2ccc(Cl)cc2)C[C@@H]1C` [Example 15r] displayed a 50% degradation concentration (DC50) above 200 nM and a Dmax of 50 to 70%.

Take `CC(=O)N1c2ccc(-c3ccc(C(=O)NCCOCCOCCOCCOCCOCCNC(=O)[C@@H]4CN(C(=O)/C(C#N)=C/c5ccc(F)cc5)C[C@H]4C4CCCCC4)cc3)cc2[C@H](Nc2ccc(Cl)cc2)C[C@@H]1C` [Example 15s]: the 50% degradation concentration (DC50) was in the range of 25 to 200 nM and the greatest degradation seen (Dmax) fell in the range of 50 to 70%.

With `CC(=O)N1c2ccc(-c3ccc(C(=O)NCCOCCOCCOCCOCCOCCNC(=O)[C@@H]4CN(C(=O)/C(C#N)=C/C(C)(C)CN5CCOCC5)C[C@H]4C4CCCCC4)cc3)cc2[C@H](Nc2ccc(Cl)cc2)C[C@@H]1C` [Example 15t], the DC50 was in the range of 25 to 200 nM and the maximal degradation (Dmax) is at least 70%.

Consider `CC(=O)N1c2ccc(-c3ccc(C(=O)NCCOCCOCCOCCOCCOCCNC(=O)[C@@H]4CN(C(=O)/C(C#N)=C/c5nccs5)C[C@H]4c4ccccc4)cc3)cc2[C@H](Nc2ccc(Cl)cc2)C[C@@H]1C` [Example 15u], for which the 50% degradation concentration (DC50) fell in the range of 25 to 200 nM and the greatest degradation seen (Dmax) was 50 to 70%.

On to `CC(=O)N1c2ccc(-c3ccc(C(=O)NCCOCCOCCOCCOCCOCCNC(=O)[C@@H]4CN(C(=O)/C(C#N)=C/c5ccn(C)n5)C[C@H]4c4ccccc4)cc3)cc2[C@H](Nc2ccc(Cl)cc2)C[C@@H]1C` [Example 15w], for which the DC50 was 25 to 200 nM and the Dmax was 30 to 50%.

For the compound `CC(=O)N1c2ccc(-c3ccc(C(=O)NCCOCCOCCOCCOCCOCCNC(=O)[C@@H]4CN(C(=O)/C(C#N)=C/c5ccc(F)cc5)C[C@H]4c4ccccc4)cc3)cc2[C@H](Nc2ccc(Cl)cc2)C[C@@H]1C` [Example 15x], the DC50 was above 200 nM and the Dmax was 30 to 50%.
